Data published in US9296725B2, “Heterocyclyl pyrimidine analogues as TYK2 inhibitors” (Cellzome Limited, priority 2012, dated 2016).
pIC50: −log10 of the molar value. Like-named read-outs stand apart in the source and are kept apart here.

Columns and labels:
JAK2 = biological target: T1, JAK2 (Homo sapiens, UniProt O60674); assay: Kinobeads assay, JAK2 (competition binding in mixed Molt4/Ramos cell lysate, dot blot detection); conditions: read-out: JAK2 Band (Kinobeads assay potency, IC50)
T1 construct: endogenous in cells; host or cells: Molt4 (ATCC CRL-1582) and Ramos (ATCC CRL-1596), mixed lysate 1:2
T1 sequence (O60674 whole entry): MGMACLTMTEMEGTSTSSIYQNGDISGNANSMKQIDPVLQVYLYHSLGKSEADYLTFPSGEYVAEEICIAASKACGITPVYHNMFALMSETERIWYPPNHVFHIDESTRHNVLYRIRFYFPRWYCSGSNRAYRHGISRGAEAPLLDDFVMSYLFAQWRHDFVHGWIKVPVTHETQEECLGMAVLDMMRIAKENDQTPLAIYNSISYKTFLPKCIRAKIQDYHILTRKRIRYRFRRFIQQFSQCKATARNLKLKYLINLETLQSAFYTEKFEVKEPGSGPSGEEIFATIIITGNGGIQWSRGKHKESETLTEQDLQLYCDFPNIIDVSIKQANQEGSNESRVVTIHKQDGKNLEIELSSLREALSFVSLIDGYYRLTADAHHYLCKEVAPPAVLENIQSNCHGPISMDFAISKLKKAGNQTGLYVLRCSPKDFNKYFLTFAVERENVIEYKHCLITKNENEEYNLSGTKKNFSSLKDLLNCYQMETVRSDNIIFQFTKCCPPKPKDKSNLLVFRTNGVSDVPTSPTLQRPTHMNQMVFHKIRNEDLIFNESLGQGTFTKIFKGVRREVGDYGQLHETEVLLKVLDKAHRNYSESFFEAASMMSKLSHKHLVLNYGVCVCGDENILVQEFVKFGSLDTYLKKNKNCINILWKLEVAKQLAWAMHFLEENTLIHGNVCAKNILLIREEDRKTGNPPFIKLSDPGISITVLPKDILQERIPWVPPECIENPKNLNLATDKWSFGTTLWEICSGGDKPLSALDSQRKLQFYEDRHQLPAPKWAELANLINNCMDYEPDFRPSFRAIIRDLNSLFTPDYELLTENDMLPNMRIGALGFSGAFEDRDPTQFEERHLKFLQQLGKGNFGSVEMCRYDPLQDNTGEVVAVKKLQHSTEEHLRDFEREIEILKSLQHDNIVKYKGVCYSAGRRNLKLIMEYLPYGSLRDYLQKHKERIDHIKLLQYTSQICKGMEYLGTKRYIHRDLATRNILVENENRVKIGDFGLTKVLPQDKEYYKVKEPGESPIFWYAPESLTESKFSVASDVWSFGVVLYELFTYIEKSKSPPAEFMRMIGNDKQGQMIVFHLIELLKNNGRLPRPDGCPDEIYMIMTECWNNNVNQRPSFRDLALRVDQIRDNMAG
Outline: (§1)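 JAK2 and TYK2 retained on Kinobeads (immobilized aminopyrido-pyrimidine ligand) from 1:2 Molt4:Ramos lysate (10 mg/mL) were quantified by antibody dot blot (Odyssey infrared) after 3 h cold incubation with compound. Nine-step 1:3 dilution series; IC50 calculated from curves.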

TYK2 = biological target: T2, TYK2 (Homo sapiens, UniProt P29597); assay: Kinobeads assay, TYK2 (competition binding in mixed Molt4/Ramos cell lysate, dot blot detection)
T2 construct: endogenous in cells; host or cells: Molt4 (ATCC CRL-1582) and Ramos (ATCC CRL-1596), mixed lysate 1:2
T2 sequence (P29597 whole entry): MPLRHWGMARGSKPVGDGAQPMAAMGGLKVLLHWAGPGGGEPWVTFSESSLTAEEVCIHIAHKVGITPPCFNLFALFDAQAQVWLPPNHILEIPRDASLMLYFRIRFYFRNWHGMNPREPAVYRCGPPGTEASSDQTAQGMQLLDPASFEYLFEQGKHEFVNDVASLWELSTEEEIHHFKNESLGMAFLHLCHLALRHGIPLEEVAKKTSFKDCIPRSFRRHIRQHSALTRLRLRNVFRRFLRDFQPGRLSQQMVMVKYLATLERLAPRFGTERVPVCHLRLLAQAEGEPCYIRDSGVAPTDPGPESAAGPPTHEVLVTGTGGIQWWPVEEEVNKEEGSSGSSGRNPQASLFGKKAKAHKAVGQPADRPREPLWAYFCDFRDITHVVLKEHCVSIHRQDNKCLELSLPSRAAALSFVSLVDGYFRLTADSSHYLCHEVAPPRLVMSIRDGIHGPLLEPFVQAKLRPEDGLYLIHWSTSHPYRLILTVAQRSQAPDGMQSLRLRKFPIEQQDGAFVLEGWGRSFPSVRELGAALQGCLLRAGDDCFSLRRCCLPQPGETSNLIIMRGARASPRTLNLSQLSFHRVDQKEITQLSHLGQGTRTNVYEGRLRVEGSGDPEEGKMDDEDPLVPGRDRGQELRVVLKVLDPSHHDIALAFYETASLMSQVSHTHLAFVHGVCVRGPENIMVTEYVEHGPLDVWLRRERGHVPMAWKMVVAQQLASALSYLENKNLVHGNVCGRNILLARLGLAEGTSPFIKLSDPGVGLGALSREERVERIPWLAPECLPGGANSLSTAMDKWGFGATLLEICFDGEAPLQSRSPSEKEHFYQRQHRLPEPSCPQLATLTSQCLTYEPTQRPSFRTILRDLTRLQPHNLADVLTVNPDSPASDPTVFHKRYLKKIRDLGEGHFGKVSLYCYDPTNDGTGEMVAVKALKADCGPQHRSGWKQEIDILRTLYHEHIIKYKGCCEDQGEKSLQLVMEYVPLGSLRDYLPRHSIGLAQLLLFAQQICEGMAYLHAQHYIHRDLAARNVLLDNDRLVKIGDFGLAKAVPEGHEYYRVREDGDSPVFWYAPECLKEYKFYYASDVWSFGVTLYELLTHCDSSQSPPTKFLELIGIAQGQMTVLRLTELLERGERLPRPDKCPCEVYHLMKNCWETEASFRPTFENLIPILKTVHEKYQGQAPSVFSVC
Outline: as §1

[1] = Kinobeads assay, Molt4/Ramos lysate, read-out: TYK2 Band (Kinobeads assay potency, IC50)

pIC50 (JAK2) | pIC50 (TYK2; [1]) | pIC50 (TYK2; read-out: TYK2 IC50) | Structure (SMILES)
< 5.00 | 7.00 to 8.00 | – | COc1cc(F)c(CNc2ccnc(Nc3cnn(CC(=O)NC(C)C)c3)n2)c(F)c1 [Example I-64]
6.00 to 7.00 | 7.00 to 8.00 | – | Cc1cnc(Nc2cnn(C)c2)nc1NCc1c(F)cccc1F [Example I-418]
< 5.00 | 7.00 to 8.00 | – | C[C@@H](CO)NC(=O)Cn1cc(Nc2nccc(NCc3c(F)cncc3F)n2)cn1 [Example I-146]
5.00 to 6.00 | 7.00 to 8.00 | – | Cn1cc(Nc2nccc(NCc3c(F)cncc3F)n2)cn1 [Example I-148]
6.00 to 7.00 | 7.00 to 8.00 | – | Cc1cnc(Nc2cnn(CC(=O)NC3CCOC3)c2)nc1NCc1c(F)cc(F)cc1F (stereo not drawn) [Example I-37]
5.00 to 6.00 | 6.00 to 7.00 | – | O=C(Cn1cc(Nc2ncc(Cl)c(NCc3ccccc3)n2)cn1)N1CCC2(CC1)COC2 [Example I-239]
5.00 to 6.00 | 6.00 to 7.00 | – | O=C(O)Cn1cc(Nc2ncc(Cl)c(NCc3ccccc3)n2)cn1 [Example I-222]
5.00 to 6.00 | 6.00 to 7.00 | – | COc1ccccc1CNc1nc(Nc2cnn(CCO)c2)ncc1Cl [Example I-185]
6.00 to 7.00 | 7.00 to 8.00 | – | N#C[C@@H]1CCN(C(=O)Cn2cc(Nc3ncc(Cl)c(NCc4ccccc4)n3)cn2)C1 [Example I-271]
5.00 to 6.00 | 6.00 to 7.00 | – | CS(=O)(=O)Cn1cc(Nc2ncc(Cl)c(NCc3ccccc3)n2)cn1 [Example I-254]
5.00 to 6.00 | 6.00 to 7.00 | – | COc1ccccc1CNc1nc(Nc2cnn(CC(N)=O)c2)ncc1Cl [Example I-321]
6.00 to 7.00 | 6.00 to 7.00 | – | CS(=O)(=O)NCc1cccc(CNc2nc(Nc3cnn(CCO)c3)ncc2Cl)c1 [Example I-417]
5.00 to 6.00 | 5.00 to 6.00 | – | Cc1cnc(Nc2cnn(CC(F)F)c2)nc1NCc1cccc(F)c1F [Example I-347]
6.00 to 7.00 | 6.00 to 7.00 | – | Fc1cc(F)cc(CNc2nc(Nc3cnn(CC(F)F)c3)ncc2Cl)c1 [Example I-470]
5.00 to 6.00 | ≥ 8.00 | – | CC(C)N(C)C(=O)Cn1cc(Nc2ncc(F)c(NCc3c(F)cc(F)cc3F)n2)cn1 [Example I-59]
7.00 to 8.00 | 7.00 to 8.00 | – | O=C(Cn1cc(Nc2ncc(Cl)c(NCc3cc(F)cc(F)c3)n2)cn1)N1CCOCC1 [Example I-162]
6.00 to 7.00 | 6.00 to 7.00 | – | CNS(=O)(=O)c1ccccc1CNc1nc(Nc2cnn(C)c2)ncc1Cl [Example I-473]
6.00 to 7.00 | 7.00 to 8.00 | – | Cn1cc(Nc2nccc(NCc3c(Cl)ccc(F)c3F)n2)cn1 [Example I-68]
5.00 to 6.00 | ≥ 8.00 | – | Cc1cnc(Nc2cnn(CC(=O)N3CCOCC3)c2)nc1NCc1cccc(OC(F)F)c1 [Example I-23]
7.00 to 8.00 | ≥ 8.00 | – | OCCn1cc(Nc2ncc(F)c(NCc3cc(F)ccc3F)n2)cn1 [Example I-203]
7.00 to 8.00 | 5.00 to 6.00 | – | OCCn1cc(Nc2ncc(Cl)c(NCc3ccc(C(F)(F)F)cc3F)n2)cn1 [Example I-245]
5.00 to 6.00 | 7.00 to 8.00 | – | CNC(=O)Cn1cc(Nc2ncc(F)c(NCc3c(F)ccc(OC)c3F)n2)cn1 [Example I-12]
6.00 to 7.00 | 7.00 to 8.00 | – | OCCn1cc(Nc2ncc(Cl)c(NCc3c(Cl)cccc3Cl)n2)cn1 [Example I-323]

pIC50 (JAK2) | pIC50 (TYK2; [1]) | pIC50 (TYK2; read-out: TYK2 IC50) | Structure (SMILES)
5.00 to 6.00 | 6.00 to 7.00 | – | Fc1cccc(F)c1CNc1nc(Nc2cnn(C(F)F)c2)ncc1Cl [Example I-224]
5.00 to 6.00 | 7.00 to 8.00 | – | CNC(=O)Cn1cc(Nc2ncc(Cl)c(NCc3c(Cl)cccc3Cl)n2)cn1 [Example I-325]
6.00 to 7.00 | 6.00 to 7.00 | – | Cc1scnc1Cn1cc(Nc2ncc(Cl)c(NCc3c(F)cccc3F)n2)cn1 [Example I-484]
5.00 to 6.00 | 7.00 to 8.00 | – | O=C(Cn1cc(Nc2nccc(NCc3c(F)cc(F)cc3F)n2)cn1)N[C@H]1C[C@H]1F [Example I-454]
6.00 to 7.00 | ≥ 8.00 | – | CNC(=O)Cn1cc(Nc2ncc(C)c(NCc3c(F)ccc(F)c3F)n2)cn1 [Example I-421]
5.00 to 6.00 | 6.00 to 7.00 | – | CN(C)C(=O)Cn1cc(Nc2ncc(F)c(NCc3cc(F)cc(C(F)(F)F)c3)n2)cn1 [Example I-331]
5.00 to 6.00 | 7.00 to 8.00 | – | Cn1cc(Nc2nccc(NCc3c(F)cccc3Cl)n2)cn1 [Example I-55]
5.00 to 6.00 | 6.00 to 7.00 | – | CS(=O)(=O)c1ccccc1CNc1nc(Nc2cnn(CCO)c2)ncc1F [Example I-435]
< 5.00 | 7.00 to 8.00 | – | CC(C)N(C)C(=O)Cn1cc(Nc2nccc(NCc3c(F)cc(F)cc3F)n2)cn1 [Example I-317]
5.00 to 6.00 | 7.00 to 8.00 | – | Cc1cnc(Nc2cnn(CC(=O)N3CCOCC3)c2)nc1NCc1ccccc1 [Example I-296]
< 5.00 | 7.00 to 8.00 | – | CC(C)(C)NC(=O)Cn1cc(Nc2nccc(NCc3c(F)cc(F)cc3F)n2)cn1 [Example I-51]
5.00 to 6.00 | 7.00 to 8.00 | – | CNC(=O)Cn1cc(Nc2ncc(Cl)c(NCc3c(F)ccc(C)c3F)n2)cn1 [Example I-284]
5.00 to 6.00 | 6.00 to 7.00 | – | CN(Cc1cccc(CNc2nc(Nc3cnn(CC(=O)N4CCOCC4)c3)ncc2Cl)c1)S(C)(=O)=O [Example I-401]
5.00 to 6.00 | 7.00 to 8.00 | – | CC(C)(C)NC(=O)Cn1cc(Nc2ncc(F)c(NCc3c(F)cc(F)cc3F)n2)cn1 [Example I-429]
5.00 to 6.00 | 6.00 to 7.00 | – | Cn1cc(Nc2ncc(Cl)c(NCc3cccc(S(N)(=O)=O)c3)n2)cn1 [Example I-198]
5.00 to 6.00 | 7.00 to 8.00 | – | C[C@H](CO)NC(=O)Cn1cc(Nc2ncc(F)c(NCc3c(F)cc(F)cc3F)n2)cn1 [Example I-41]
5.00 to 6.00 | ≥ 8.00 | > 7.00 | CC(C)NC(=O)Cn1cc(Nc2ncc(F)c(NCc3c(F)cc(F)cc3F)n2)cn1 [Example I-38]
5.00 to 6.00 | ≥ 8.00 | – | CC(C)NC(=O)Cn1cc(Nc2ncc(F)c(NCc3c(F)cccc3F)n2)cn1 [Example I-66]
5.00 to 6.00 | 5.00 to 6.00 | – | CNC(=O)Cn1cc(Nc2ncc(Cl)c(NCc3ccccc3S(C)(=O)=O)n2)cn1 [Example I-451]
5.00 to 6.00 | 6.00 to 7.00 | – | CN(C)CCNC(=O)Cn1cc(Nc2ncc(Cl)c(NCc3cccc(OCC#N)c3)n2)cn1 [Example I-367]
5.00 to 6.00 | 7.00 to 8.00 | – | NS(=O)(=O)c1ccc(F)c(CNc2nc(Nc3cnn(CCO)c3)ncc2Cl)c1 [Example I-226]
5.00 to 6.00 | 5.00 to 6.00 | – | CS(=O)(=O)c1ccccc1CNc1nc(Nc2cnn(CC(F)F)c2)ncc1F [Example I-477]
6.00 to 7.00 | 7.00 to 8.00 | – | COc1ccc(Cl)c(CNc2nc(Nc3cnn(C)c3)ncc2F)c1F [Example I-85]

pIC50 (JAK2) | pIC50 (TYK2; [1]) | pIC50 (TYK2; read-out: TYK2 IC50) | Structure (SMILES)
5.00 to 6.00 | 7.00 to 8.00 | – | COc1ccc(S(C)(=O)=O)cc1CNc1nc(Nc2cnn(C)c2)ncc1F [Example I-446]
5.00 to 6.00 | 7.00 to 8.00 | – | CNC(=O)Cn1cc(Nc2ncc(F)c(NCc3cc(S(C)(=O)=O)ccc3OC)n2)cn1 [Example I-448]
5.00 to 6.00 | 7.00 to 8.00 | – | Cc1cnc(Nc2cnn(C)c2)nc1NCc1c(F)cc(F)cc1F [Example I-301]
6.00 to 7.00 | ≥ 8.00 | – | C[C@@H](CO)NC(=O)Cn1cc(Nc2nccc(NCc3c(Cl)ccc(Cl)c3F)n2)cn1 [Example I-121]
5.00 to 6.00 | 5.00 to 6.00 | – | Cc1cnc(Nc2cnn(CC(F)(F)F)c2)nc1NCc1cc(F)cc(F)c1 [Example I-350]
5.00 to 6.00 | 7.00 to 8.00 | – | CN(C)C(=O)Cn1cc(Nc2ncc(F)c(NCc3c(F)ccc(F)c3F)n2)cn1 [Example I-411]
5.00 to 6.00 | 7.00 to 8.00 | – | COc1ccc(F)c(CNc2nc(Nc3cnn(C)c3)ncc2Cl)c1F [Example I-319]
5.00 to 6.00 | 6.00 to 7.00 | – | Cc1cnc(Nc2cnn(CCO)c2)nc1NCc1ccccc1 [Example I-169]
5.00 to 6.00 | 7.00 to 8.00 | – | Cn1cc(Nc2ncc(Cl)c(NCc3c(F)cccc3C(F)(F)F)n2)cn1 [Example I-118]
5.00 to 6.00 | 6.00 to 7.00 | – | Cc1cnc(Nc2cnn(CC(=O)N(C)C)c2)nc1NCc1ccccc1 [Example I-300]
6.00 to 7.00 | 6.00 to 7.00 | – | N#Cc1c(F)cccc1CNc1nc(Nc2cnn(CCO)c2)ncc1Cl [Example I-287]
5.00 to 6.00 | 7.00 to 8.00 | – | CNC(=O)Cn1cc(Nc2ncc(Cl)c(NCc3c(F)cc(F)cc3F)n2)cn1 [Example I-388]
5.00 to 6.00 | 7.00 to 8.00 | – | CN(C)C(=O)Cn1cc(Nc2ncc(Cl)c(NCc3cc(OC(F)F)ccc3F)n2)cn1 [Example I-414]
5.00 to 6.00 | 6.00 to 7.00 | – | Cn1cc(Nc2ncc(F)c(NCc3cccc(F)c3F)n2)cn1 [Example I-177]
6.00 to 7.00 | 7.00 to 8.00 | – | CS(=O)(=O)c1ccc(F)cc1CNc1nc(Nc2cn[nH]c2)ncc1Cl [Example I-72]
6.00 to 7.00 | 7.00 to 8.00 | – | O=C(Cn1cc(Nc2ncc(Cl)c(NCc3cncc(F)c3)n2)cn1)N1CCOCC1 [Example I-339]
5.00 to 6.00 | 6.00 to 7.00 | – | Cn1cc(Cn2cc(Nc3ncc(Cl)c(NCc4c(F)cccc4F)n3)cn2)cn1 [Example I-482]
5.00 to 6.00 | 7.00 to 8.00 | – | CCOc1ccc(F)c(CNc2nc(Nc3cnn(CC(=O)N(C)C)c3)ncc2Cl)c1F [Example I-268]
6.00 to 7.00 | 7.00 to 8.00 | – | CS(=O)(=O)c1ccc(F)cc1CNc1nc(Nc2cnn(CC(N)=O)c2)ncc1F [Example I-489]
5.00 to 6.00 | 6.00 to 7.00 | – | CS(=O)(=O)c1ccccc1CNc1nc(Nc2cnn(CC(N)=O)c2)ncc1F [Example I-436]
5.00 to 6.00 | ≥ 8.00 | – | Cc1cnc(Nc2cnn(CC(=O)NC(C)C)c2)nc1NCc1c(F)cc(F)cc1F [Example I-32]
